Experimental findings from patent US10265346B2, “Trehalose-containing mammalian cell suspension for prevention of pulmonary embolism formation” (OTSUKA PHARMACEUTICAL FACTORY, INC., priority 2012, dated 2019) are described below.

This test in a line: Preventive effect against pulmonary embolism formation (no method given). Conditions: stated as demonstrated by the present inventors, no data given.

On to dextran, for which the “preventive effect against pulmonary embolism formation (in words)” value is recorded as “demonstrated to have a preventive effect against pulmonary embolism formation”.
